Measurements as given in PubChem BioAssay (NCI).
Values joined by “and” are separate entries in the source; they are usually repeats but may differ in a detail not shown here. Equal values may be shown once.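 How tested: cells in 96-well plates exposed to compound for 48 hours at five concentrations. Here, GI50 denotes the concentration required for 50% inhibition of growth. TGI denotes the concentration required for complete inhibition of growth.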

How the values were obtained:
Test in all cases: growth of human tumour cells (NCI), 48 h
[1] = test system: OVCAR-8 ovarian
[2] = test system: SK-MEL-5 melanoma
[3] = test system: CAKI-1 renal
[4] = test system: NCI-H23 lung
[5] = test system: EKVX NSCLC
[6] = test system: ACHN renal
[7] = test system: SK-MEL-28 melanoma
[8] = test system: SF-268 CNS
[9] = test system: MDA-MB-231 breast
[10] = test system: MALME-3M melanoma
[11] = test system: BT-549 breast
[12] = test system: T-47D breast
[13] = test system: OVCAR-3 ovarian
[14] = test system: MDA-MB-435
[15] = test system: KM12 colon
[16] = test system: CCRF-CEM leukemia
[17] = test system: A498 renal
[18] = test system: RXF 393 renal
[19] = test system: HS 578T breast
[20] = test system: SK-OV-3 ovarian
[21] = test system: UO-31 renal
[22] = test system: UACC-62 melanoma
[23] = test system: U251 CNS
[24] = test system: RPMI-8226 leukemia
[25] = test system: K-562 leukemia
[26] = test system: SNB-75 CNS
[27] = test system: UACC-257 melanoma
[28] = test system: M14 melanoma
[29] = test system: SF-295 CNS
[30] = test system: NCI-H460 lung
[31] = test system: MOLT-4 leukemia
[32] = test system: NCI-H522 lung
[33] = test system: MCF7 breast
[34] = test system: SNB-19 CNS
[35] = test system: OVCAR-4 ovarian
[36] = test system: HOP-92 NSCLC
[37] = test system: SK-MEL-2 melanoma
[38] = test system: COLO 205 colon
[39] = test system: HL-60(TB) leukemia
[40] = test system: SF-539 CNS
[41] = test system: HCT-116 colon
[42] = test system: HOP-62 NSCLC
[43] = test system: NCI/ADR-RES ovarian
[44] = test system: DU-145 prostate
[45] = test system: 786-0 renal
[46] = test system: A549 NSCLC
[47] = test system: HT29 colon
[48] = test system: SR leukemia
[49] = test system: PC-3 prostate
[50] = test system: TK-10 renal
[51] = test system: NCI-H226 lung
[52] = test system: LOX IMVI melanoma
[53] = test system: HCT-15 colon
[54] = test system: SN12C renal
[55] = test system: HCC-2998 colon
[56] = test system: OVCAR-5 ovarian
[57] = test system: SW-620 colon

## CC(C)c1cc(C(=O)N2Cc3ccc(CN4CCN(C)CC4)cc3C2)c(O)cc1O
[1]
  GI50: 0.0604 µM and 0.3 µM
  TGI: > 100 µM
[2]
  GI50: 0.163 µM and 0.459 µM
  TGI: 17.3 µM and 16.5 µM
[3]
  GI50: 0.0522 µM and 0.512 µM
[4]
  GI50: 0.0606 µM and 0.458 µM
  TGI: 97.4 µM and > 53.9 µM
[5]
  GI50: 0.983 µM and 1.27 µM
  TGI: > 100 µM
[6]
  GI50: 0.0661 µM and 0.21 µM
  TGI: > 100 µM
[7]
  GI50: 0.0983 µM and 0.536 µM
  TGI: 18.3 µM and 15.8 µM
[8]
  TGI: 59.1 µM and 54.3 µM
[9]
  GI50: 0.39 µM and 0.443 µM
  TGI: 24.8 µM and 13.7 µM
[10]
  GI50: 0.0403 µM and 0.271 µM
  TGI: 1.26 µM and 1.66 µM
[11]
  GI50: 15.9 µM and 2.39 µM
  TGI: > 100 µM and 30.4 µM
[12]
  GI50: 0.0631 µM and 0.342 µM
  TGI: 31.2 µM and 34.8 µM
[13]
  GI50: 0.0793 µM and 0.452 µM
  TGI: 23.4 µM and 20.9 µM
[14]
  GI50: 0.0514 µM and 0.137 µM
  TGI: 21.1 µM and 13.4 µM
[15]
  GI50: 0.0291 µM and 0.0772 µM
[16]
  GI50: 0.0737 µM and 0.106 µM
  TGI: > 100 µM and 30.2 µM
[17]
  TGI: > 100 µM and 15.2 µM
[18]
  GI50: 0.916 µM and 2.36 µM
  TGI: 30.5 µM and 28.8 µM
[19]
  GI50: 0.716 µM and 1.87 µM
  TGI: 35.3 µM and 43.9 µM
[20]
  GI50: 0.0315 µM and 0.0644 µM
  TGI: 54 µM and 18.8 µM
[21]
  GI50: 0.0591 µM and 0.296 µM
  TGI: 23.6 µM and 18.1 µM
[22]
  GI50: 0.0697 µM and 0.286 µM
  TGI: 15.4 µM and 3.91 µM
[23]
  GI50: 0.0863 µM and 0.32 µM
  TGI: > 50.5 µM and 19.6 µM
[24]
  TGI: > 100 µM and 30.2 µM
[25]
  GI50: 0.0472 µM and 0.207 µM
  TGI: > 100 µM and 16.2 µM
[26]
  GI50: 1.27 µM and 2.19 µM
  TGI: 46.7 µM and > 57.3 µM
[27]
  GI50: 0.0954 µM and 0.484 µM
  TGI: 4.46 µM and 15.2 µM
[28]
  GI50: 0.0659 µM and 0.334 µM
  TGI: 15.6 µM and 14.6 µM
[29]
  GI50: 0.0371 µM and 0.158 µM
  TGI: 2.06 µM and 3.24 µM
[30]
  GI50: 0.0311 µM and 0.0534 µM
  TGI: 16.2 µM and 11.6 µM
[31]
  GI50: 0.0473 µM and 0.177 µM
  TGI: > 66.4 µM and 20.7 µM
[32]
  GI50: 0.0454 µM and 0.291 µM
  TGI: 3.2 µM and 18 µM
[33]
  GI50: 0.0254 µM and 0.0484 µM
  TGI: 24.1 µM and 30.5 µM
[34]
  GI50: 0.872 µM and 0.847 µM
  TGI: > 100 µM
[35]
  GI50: 5.79 µM and 6.39 µM
  TGI: > 100 µM
[36]
  GI50: 0.617 µM and 0.498 µM
  TGI: 35.3 µM and 11 µM
[37]
  GI50: 0.736 µM and 0.71 µM
  TGI: 4.78 µM and 20.1 µM
[38]
  GI50: 0.0422 µM and 0.0444 µM
[39]
  GI50: 0.0479 µM and 0.212 µM
  TGI: 16.2 µM and 11.6 µM
[40]
  GI50: 1.5 µM and 1 µM
  TGI: 24.3 µM and 18 µM
[41]
  GI50: 0.0394 µM and 0.0818 µM
  TGI: 15.3 µM and 13.4 µM
[42]
  GI50: 0.128 µM and 0.656 µM
  TGI: > 92.2 µM
[43]
  GI50: 0.245 µM and 0.779 µM
  TGI: > 90 µM
[44]
  GI50: 0.0741 µM and 0.0553 µM
  TGI: 24.4 µM and 18.8 µM
[45]
  GI50: 1.93 µM and 0.64 µM
  TGI: 30.5 µM and 21 µM
[46]
  GI50: 0.044 µM and 0.238 µM
  TGI: > 46 µM and 37.1 µM
[47]
  GI50: 0.0428 µM and 0.058 µM
  TGI: > 32.8 µM and 12.6 µM
[48]
  GI50: 0.0371 µM and 0.0593 µM
  TGI: 84 µM and 17.1 µM
[49]
  GI50: 1.97 µM and 0.483 µM
  TGI: > 100 µM
[50]
  GI50: 0.0428 µM and 0.381 µM
  TGI: 49.8 µM
[51]
  GI50: 0.414 µM and 0.553 µM
  TGI: > 60.3 µM and 50.6 µM
[52]
  GI50: 0.055 µM and 0.177 µM
  TGI: 0.369 µM and 2.52 µM
[53]
  GI50: 0.0622 µM and 0.145 µM
  TGI: > 100 µM and 21.8 µM
[54]
  GI50: 0.106 µM and 0.498 µM
  TGI: > 100 µM
[55]
  GI50: 0.0455 µM and 0.213 µM
[56]
  TGI: > 100 µM
[57]
  GI50: 0.0376 µM and 0.0557 µM
  TGI: 23.6 µM and 14.8 µM
